Entries after “also recorded” stand apart in the source; their conditions may differ. Where two headings read alike, the source gives them in different places.
Key:
Assay type in all cases: cell-based
[1] = system: human peripheral blood mononuclear cells (PBMC); test: Cytotoxicity on normal PBMC (quiescent or PHA-activated); conditions: up to 10 μM, 24 h
Method: U-937 (human myeloid leukaemia) cells from DSMZ (German Collection of Microorganisms and Cell Cultures, Braunschweig, Germany) and U-937 cells overexpressing human Bcl-2 protein (designated U-937/Bcl-2, donated by Dr Jacqueline Bréard, INSERM U749, Faculté de Pharmacie Paris-Sud., Châtenay-Malabry, France) were cultured in RPMI-1640 medium containing 10% (v/v) heat-inactivated foetal bovine serum, 100 μg/mL streptomycin and 100 U/mL penicillin, incubated at 37 °C in a humidified atmosphere containing 5% CO2 as described. The functioning of U-937/Bcl-2 cells was tested using the cytotoxic agent 1-β-D-arabino-furanosylcytosine as previously described. Human peripheral blood mononuclear cells (PBMC) were isolated from heparin-anticoagulated blood of healthy volunteers by centrifugation with Ficoll-Paque Plus (GE Healthcare Bio-Sciences AB, Uppsala, Sweden). PBMC were also stimulated with phytohemagglutinin (2 μg/mL) for 48 h before the experimental treatment. The trypan blue dye exclusion method was used for counting the living/dead cells by a hematocytometer with 95% viability in all experiments. The cytotoxicity of compounds was evaluated by the colorimetric 3-(4,5-dimethyl-2-thiazolyl-)-2,5-diphenyl-2H-tetrazolium bromide (MTT) assay as previously described. […] After the addition of MTT (0.5 mg/mL), cells were incubated at 37 °C for 4 h. Sodium dodecyl sulphate (10% w/v) in 0.05 M HCl was added to the wells and then incubated at room temperature overnight in the dark. Absorbance was measured at 570 nm. […] Values are mean ± SE from at least three independent experiments, each performed in triplicate. Compounds were dissolved in DMSO and kept in the dark at 25 °C.

[2] = system: human cervix carcinoma (HeLa) cells; test: Antiproliferative assay, cell counting (Coulter Counter), HeLa; conditions: 72–96 h, read-out: IC50, inhibition of proliferation
Method: (§1) Human cervix carcinoma (HeLa), human colon carcinoma (HT29), human breast carcinoma (MCF-7) and human lymphoma (HL-60) cells (3–5 × 10^4 cells) and a serial (five-fold) dilution of the test compounds were added to a 96-well microtiter plate. The cells were incubated for 72–96 h (depending on the tumor cell line) at 37 °C in a humidified 5% CO2 atmosphere. At the end of the incubation period, the cells were counted in a Coulter Counter (Coulter Electronics Ltd, Harpenden Herts, UK). […] The IC50 values represent the average (±standard deviation) of at least two to four independent experiments.

[3] = system: human breast adenocarcinoma (MCF-7) cells; test: Antiproliferative assay, cell counting (Coulter Counter), MCF-7; conditions: for fold more potent than CA-4: MCF-7 cells, ratio of IC50 values
Method: as §1

SMILES	Toxicity to normal PBMC [1]	IC50 ([2]; Homo sapiens) [nM]	IC50 ([3]; Homo sapiens, MCF7, MCF-7, 72–96 h, read-out: IC50, inhibition of proliferation) [nM]	fold more potent than CA-4 [3]	IC50 [2] [nM]
CCOC(=O)c1[nH]c2ccc(OC)cc2c1/C=C/C(=O)c1cc(OC)c(OC)c(OC)c1 [Compound 9d, (E)-Ethyl 5-methoxy-3-(3-oxo-3-(3,4,5-trimethoxyphenyl)prop-1-en-1-yl)-1H-indole-2-carboxylate]	devoid of significant cytotoxic activity; also recorded: no appreciable toxicity	–	–	–	–
COC(=O)c1[nH]c2cc(OC)ccc2c1/C=C/C(=O)c1cc(OC)c(OC)c(OC)c1 [Compound 9e, (E)-Methyl 6-methoxy-3-(3-oxo-3-(3,4,5-trimethoxyphenyl)prop-1-en-1-yl)-1H-indole-2-carboxylate]	devoid of significant cytotoxic activity; also recorded: no appreciable toxicity	370 ± 180	170 ± 30	1.5–2 fold	–
CCOC(=O)c1[nH]c2cc(OC)ccc2c1/C=C/C(=O)c1cc(OC)c(OC)c(OC)c1 [Compound 9f, (E)-Ethyl 6-methoxy-3-(3-oxo-3-(3,4,5-trimethoxyphenyl)prop-1-en-1-yl)-1H-indole-2-carboxylate]	devoid of significant cytotoxic activity; also recorded: no appreciable toxicity	< 1000	–	1.5–2 fold	840 ± 390
